Measurements from patent publication US10596224B2, “Method of treating a wound, comprising the step of administering a composition including a substance P” (Biosolution Co., Ltd, priority 2016, dated 2020).
“Also recorded” adds a separate entry of the source. Read-outs that look alike come from different tables or passages of the source.

Assays:
[1] = test system: full-thickness skin wound models; experiment: Wound size-reducing effect in skin wound mouse model; format: in vivo, BALB/c female mice; conditions: 6 days after administration
Text: (§1) Commercially available wound healing agents, Madecassol care ointment (Dongguk Pharmaceuticals, Korea) and Easyef cell regenerating ointment (Daewoong Pharmaceuticals) were used as positive control groups.
(§2) In detail, 7-week-old BALB/c female mice (DooYeol Biotech) were acclimated for 1 week, and then anesthetized by an intraperitoneal injection of a mixture of Ketamine and rumpun. The dorsal hair was removed using an electric razor and a hair removal cream (Veet). Povidone and 70% ethanol were used to disinfect the area from which the epidermis was to be removed, and a 5-mm biopsy punch was used to apply a full-thickness wound on both sides of the lower buttocks, while avoiding the spine of the mouse. To prevent spontaneous wound contraction by the superficial muscle of the mouse, a silicone ring with an outer diameter of 15 mm and an inner diameter of 8 mm was attached around the wounded area using suture threads.
Thereafter, to the wound site, phosphate buffered saline as the negative control was administered, and Madecassol care and Easyef cell regenerating ointments as the positive controls were administered. […]
In detail, the reduced wound size was calculated as the size of wound area by analyzing an image of the wound at 0 day and 6 days after administration of the novel formulations. The size of wound area was quantified by using Photoshop.

[2] = test system: full-thickness skin wound models; experiment: Angiogenic effect in skin wound mouse model; format: in vivo, BALB/c female mice; conditions: biopsy 6 days after administration, FIG. 5
Text: In detail, increased angiogenesis was confirmed by examining an image of angiogenesis on the skin tissue with the naked eye after biopsy of the skin tissue of the wound area 6 days after administration of the novel formulations.

[3] = test system: full-thickness skin wound models; experiment: Epidermal regeneration effect (epidermal gaps, H&E) in skin wound mouse model; format: in vivo, BALB/c female mice; conditions: 6 days after administration, compared to the control groups
Text: as §1, §2
(§3) Thereafter, to the wound site, phosphate buffered saline as the negative control was administered, and Madecassol care and Easyef cell regenerating ointments as the positive controls were administered. […] Specifically, each 30 μl of SP and each novel formulations were administered to the full-thickness wound once a day for 5 days.

[4] = test system: full-thickness skin wound models; experiment: Granulation tissue maturation (H&E) in skin wound mouse model; format: in vivo, BALB/c female mice; conditions: 6 days after administration, compared to the negative control group
Text: as §1, §2, §3

[5] = Stability of SP over time in cell growth media KGM and FGM (SP ELISA kit); format: physicochemical; conditions: stored in KGM and FGM media, 0-24 hrs
Procedure: SP and SP of SP+HEC+polysorbate 80+sodium thiosulfate formulation were stored in cell growth media for human epithelial keratinocyte (HEK) culture (keratinocyte growth media; KGM) and human dermal fibroblast (HDF) culture (fibroblast growth media; FGM).
Each sample was taken out of the media after a predetermined period of time (0 hr, 3 hrs, 6 hrs, 12 hrs and 24 hrs), and diluted with phosphate buffered saline, and then the SP content in each sample was analyzed using SP ELISA kit.

[6] = Stability of SP at different storage temperatures (SP ELISA kit); format: physicochemical; conditions: stored at 60° C., 37° C., RT, and 4° C. for 4 weeks
Procedure: Further, it was examined with respect to whether SP stability in each sample was maintained at different temperatures. […] The samples before storage were used as control groups. SP stability was analyzed using SP ELISA kit.

[7] = test system: human dermal fibroblast cells; conditions: for cell proliferation rate: 48 hours, MTT
Procedure: The cell proliferative effect of SP was analyzed by MTT assay.
In detail, 100 μl of a human dermal fibroblast cell suspension of 3×10^4 CFU/ml was put in a 96-well culture plate, and incubated for 24 hours. FGM medium (fibroblast growth medium; fibroblast basal medium containing hFGF-B, insulin, fetal bovine serum (FBS), gentamicin, and amphotericin-B) were removed, and then 180 μl of fresh FGM medium was dispensed into each well, and then 20 μl of SP diluted with phosphate buffered saline (PBS) was inoculated by varying its concentration (0.1, 1, 5, 10, 50, and 100 μg/ml).
Meanwhile, 20 μl of phosphate buffered saline was used as a negative control group. After inoculation, cells were incubated at 37° C. for 48 hours, and then the medium, SP, and negative control group were removed. The cells were washed with the phosphate buffered saline three times. 90 μl of FGM medium was mixed with 10 μl of MTT solution (0.5 mg/ml), and treated to each well, and allowed to react at 37° C. for 4 hours.
Finally, the cells were washed with the phosphate buffered saline, and stirred in 150 μl of isopropyl alcohol solution for 10 minutes, and absorbance at 570 nm was measured.

SMILES: CSCC[C@H](NC(=O)[C@H](CC(C)C)NC(=O)CNC(=O)[C@H](Cc1ccccc1)NC(=O)[C@H](Cc1ccccc1)NC(=O)[C@H](CCC(N)=O)NC(=O)[C@H](CCC(N)=O)NC(=O)[C@@H]1CCCN1C(=O)[C@H](CCCCN)NC(=O)[C@@H]1CCCN1C(=O)[C@@H](N)CCCNC(=N)N)C(N)=O [SP]
- size of the wound examined with the naked eye [1]: no significant difference in the wound size; also recorded: slight difference
- wound area (size of wound area quantified) ([1]; 30 μl once a day for 5 days, topical to wound): ≥ 40%
- angiogenesis on the skin tissue (naked eye) [2]: insignificant
- epidermal gaps [3]: about 60%
- granulation tissue maturation [4]: compact granulation tissue formation
- SP content over time (SP stability) [5]: reduction in the SP content over time
- SP content according to temperature conditions (SP stability) [6]: lower SP content than the SP+HEC+polysorbate 80+sodium thiosulfate formulation; also recorded: changes in the SP content according to temperature changes
- cytotoxicity [7]: without cytotoxicity
- cell proliferation rate ([7]; SP 5 μg/ml): ≥ 200%
- proliferation rate compared to the negative control group ([7]; SP 5 μg/ml, negative control phosphate buffered saline): ≥ 2.2 times
- cell proliferation rate ([7]; all concentration groups of 0.1 μg/ml to 100 μg/ml SP): ≥ 170%
